The values that follow come from patent US20180236016A1, “NEUROTRANSMITTER AND BRAIN MODULATING ORAL DELIVERY SYSTEM FOR ENHANCEMENT OF COGNITIVE FUNCTIONS AND ENERGY” (Steady Nutrition LLC, priority 2017, published 2018).

For series [1] the following is noted: in vivo; cited from earlier work.
A short description of series [2]: Sedimentation / precipitation of theobromine in the filled product. It is filed as physicochemical. The following applies: in the emulsions of Example 3. As to the method:
2000 ml of conventional water based energy drink supplements were produced by blending all ingredients below, heating to 170 F and cooling to ambient temperature. About 30 ml of each composition were filled into HDPE plastic bottles. Example 1A contained 210 mg caffeine, 460 mg taurine, 120 mg N Acetyl L-Tyrosine, 300 mg glucuronolactone/30 ml serving. The water activity was 0.95; water content was 86% and pH of 2.90. […] Products were filled into 30 ml HDPE bottles and capped.
For each formulation, 1000 g batches were made. Milk fat and cocoa butter were weighted up and pre-blended at the specified amounts, then heated up to 130 F in a processing vessel. Water, mono and diglycerides, sugar, glycerin, cocoa powder and other optional ingredients were added Caffeine, theobromine, glucuronolactone, taurine and N acetyl L-tyrosine were mixed in. The admixture was heated up to 170-180 F for about 5 minutes and then cooled to 100 F. The water activity was adjusted to 0.85 or lower by the addition of glycerin. The entire admixture was homogenized at 1,000 psi for example 3A and at to 3,000 psi for example 3B and 3C. […] Water activity readings were 0.81, 0.82 and 0.72 for example 3A, 3B and 3C respectively. The pH readings were 5.8, 5.3 and 6.7 for example 3A, 3B and 3C respectively. Viscosity readings were 110, 170 and 250 centipoise for example 3A, 3B and 3C respectively.

For series [3] the following is noted: cited from earlier work.

For the molecule `Cn1c(=O)c2c(ncn2C)n(C)c1=O` [caffeine, reference compound], the “impact is felt in” value in series [1] was 15 to 30 min.

On to `Cn1cnc2c1c(=O)[nH]c(=O)n2C` [theobromine], for which the half-life in series [1] is 7 to 12 h. The precipitation of theobromine entry in series [2] is listed as “not precipitated”. Further, the water solubility result in series [3] is listed as “not water soluble”.

For the molecule Phosphatidylcholine, in series [3], the “fat / lipid solubility” value is “only lipid soluble” and the water solubility entry was “not water soluble”.

On to Phosphatidylserine [PS], for which, in series [3], the “fat / lipid solubility” value is listed as “only lipid soluble” and the water solubility result is recorded as “not water soluble”.

By half-life is commonly meant the time in which the quantity being followed falls by half.
